# Results taken from article PMC2836812 (Chemical biology & drug design, 2010).
# Where two headings read alike, the source gives them in different places.
# Legend:
# [1] = molecular target: T1, ScPFTase (protein farnesyltransferase), β-subunit (Saccharomyces cerevisiae, UniProt P22007); test: continuous fluorescence assay with N-dansyl-GCVIA; type: biochemical
# T1 sequence (P22007 1-431): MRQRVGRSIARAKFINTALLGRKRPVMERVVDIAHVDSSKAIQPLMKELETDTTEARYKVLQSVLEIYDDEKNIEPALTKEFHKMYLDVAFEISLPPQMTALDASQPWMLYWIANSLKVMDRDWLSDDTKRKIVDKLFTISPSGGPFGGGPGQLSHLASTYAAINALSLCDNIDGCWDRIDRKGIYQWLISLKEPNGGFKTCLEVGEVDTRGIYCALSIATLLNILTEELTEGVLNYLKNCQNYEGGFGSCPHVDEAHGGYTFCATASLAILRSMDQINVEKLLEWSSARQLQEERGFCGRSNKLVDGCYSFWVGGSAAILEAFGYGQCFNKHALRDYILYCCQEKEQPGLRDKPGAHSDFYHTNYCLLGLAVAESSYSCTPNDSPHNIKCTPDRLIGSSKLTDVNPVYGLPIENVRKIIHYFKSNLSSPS
# T1 sequence (P29703 1-316 partner): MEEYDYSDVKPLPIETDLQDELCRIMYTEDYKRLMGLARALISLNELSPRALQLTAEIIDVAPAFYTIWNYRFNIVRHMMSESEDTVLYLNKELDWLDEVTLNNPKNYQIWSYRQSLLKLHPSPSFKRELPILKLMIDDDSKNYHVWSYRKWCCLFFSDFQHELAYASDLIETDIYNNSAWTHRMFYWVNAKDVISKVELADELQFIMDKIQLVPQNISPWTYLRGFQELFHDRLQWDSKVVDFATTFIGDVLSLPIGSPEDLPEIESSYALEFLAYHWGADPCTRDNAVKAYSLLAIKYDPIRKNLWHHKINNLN
# [2] = molecular target: T1, ScPFTase (protein farnesyltransferase), β-subunit; test: continuous fluorescence assay with N-dansyl-GCVIA; type: biochemical; remark: listed apart in the source
IC50 [1] [µM],IC50 [2] [µM],Compound
30,,"C/C(=C\COP(=O)(O)OP(=O)(O)O)CCCC(C)COC(=O)C(=[N+]=[N-])C(F)(F)F (racemic) [compound 4, (E)-8-O-(2-Diazo-3,3,3-trifluoropropanoyloxy)-3,7-dimethyl-2-octenyl-1-diphosphate]"
,50,"C/C(=C\COP(=O)(O)OP(=O)(O)O)CC/C=C(\C)CNC(=O)C(=[N+]=[N-])C(F)(F)F [compound 3, (E,E)-8-N-(2-Diazo-3,3,3-trifluoropropionamido)-3,7-dimethyl-2,6-octadienyl-1-diphosphate]"
